Data as given in article PMC12102759 (Protein Science : A Publication of the Protein Society, 2025).

Tested on: G3BP1 NFT2
Format: binding, human
Details: library DMS-CoV; bait G3BP1 NFT2; prey N; peptide APRITFGGPSDSTGSN; listed as aa = residue placed at this position; column sums to 1

Sequence	DMS PSSM value, G (position 7)	DMS PSSM value, P (position 9)	DMS PSSM value, S (position 15)	DMS PSSM value, T (position 13)	DMS PSSM value, R (position 3)	DMS PSSM value, I (position 4)	DMS PSSM value, A (position 1)	DMS PSSM value, D (position 11)	DMS PSSM value, P (position 2)	DMS PSSM value, S (position 10)
APRITFGGPSDSTGSN G7D (APRITFDGPSDSTGSN)	0									
APRITFGGPSDSTGSN P9F (APRITFGGFSDSTGSN)		0.2349								
APRITFGGPSDSTGSN S15W (APRITFGGPSDSTGWN)			0.00112							
APRITFGGPSDSTGSN P9M (APRITFGGMSDSTGSN)		0								
APRITFGGPSDSTGSN T13R (APRITFGGPSDSRGSN)				0						
APRITFGGPSDSTGSN R3Q (APQITFGGPSDSTGSN)					0.006747					
APRITFGGPSDSTGSN P9T (APRITFGGTSDSTGSN)		0.01557								
APRITFGGPSDSTGSN I4D (APRDTFGGPSDSTGSN)						0				
APRITFGGPSDSTGSN A1D (DPRITFGGPSDSTGSN)							0.5313			
APRITFGGPSDSTGSN P9H (APRITFGGHSDSTGSN)		0								
APRITFGGPSDSTGSN A1Y (YPRITFGGPSDSTGSN)							0.04618			
APRITFGGPSDSTGSN D11P (APRITFGGPSPSTGSN)								0.007134		
APRITFGGPSDSTGSN P2M (AMRITFGGPSDSTGSN)									0	
APRITFGGPSDSTGSN P2L (ALRITFGGPSDSTGSN)									0	
APRITFGGPSDSTGSN D11L (APRITFGGPSLSTGSN)								0.001888		
APRITFGGPSDSTGSN S10V (APRITFGGPVDSTGSN)										0.01109
APRITFGGPSDSTGSN G7F (APRITFFGPSDSTGSN)	0									
APRITFGGPSDSTGSN S15K (APRITFGGPSDSTGKN)			0.0001786							

Sequence	DMS PSSM value, G (position 7)	DMS PSSM value, P (position 9)	DMS PSSM value, S (position 15)	DMS PSSM value, T (position 13)	DMS PSSM value, R (position 3)	DMS PSSM value, I (position 4)	DMS PSSM value, A (position 1)	DMS PSSM value, D (position 11)	DMS PSSM value, P (position 2)	DMS PSSM value, S (position 10)
APRITFGGPSDSTGSN G7R (APRITFRGPSDSTGSN)	0									
APRITFGGPSDSTGSN S10F (APRITFGGPFDSTGSN)										0.001618
APRITFGGPSDSTGSN S10Y (APRITFGGPYDSTGSN)										0.2277
APRITFGGPSDSTGSN A1Q (QPRITFGGPSDSTGSN)							0.01117			
APRITFGGPSDSTGSN S15L (APRITFGGPSDSTGLN)			0.01038							
APRITFGGPSDSTGSN S15Y (APRITFGGPSDSTGYN)			0.1419							
APRITFGGPSDSTGSN P9Q (APRITFGGQSDSTGSN)		0								
APRITFGGPSDSTGSN P2K (AKRITFGGPSDSTGSN)									0	
APRITFGGPSDSTGSN I4L (APRLTFGGPSDSTGSN)						0				
APRITFGGPSDSTGSN R3I (APIITFGGPSDSTGSN)					0.2843					
APRITFGGPSDSTGSN A1E (EPRITFGGPSDSTGSN)							0.1097			
APRITFGGPSDSTGSN S15H (APRITFGGPSDSTGHN)			0.01115							
APRITFGGPSDSTGSN R3D (APDITFGGPSDSTGSN)					9.037e-5					
APRITFGGPSDSTGSN S15D (APRITFGGPSDSTGDN)			0.002282							
APRITFGGPSDSTGSN R3E (APEITFGGPSDSTGSN)					0.01584					
APRITFGGPSDSTGSN R3F (APFITFGGPSDSTGSN)					0.003092					
APRITFGGPSDSTGSN A1T (TPRITFGGPSDSTGSN)							0.07786			

Same assay, conditions: library DMS-CoV; bait G3BP1 NFT2; prey N; peptide APRITFGGPSDSTGSN; listed as aa = residue placed at this position; column sums to 1

Sequence	DMS PSSM value, S (position 12)	DMS PSSM value, G (position 14)	DMS PSSM value, G (position 8)	DMS PSSM value, F (position 6)
APRITFGGPSDSTGSN S12T (APRITFGGPSDTTGSN)	0.00392			
APRITFGGPSDSTGSN G14F (APRITFGGPSDSTFSN)		0.04037		
APRITFGGPSDSTGSN G8M (APRITFGMPSDSTGSN)			0	
APRITFGGPSDSTGSN F6L (APRITLGGPSDSTGSN)				0.004454
APRITFGGPSDSTGSN G8K (APRITFGKPSDSTGSN)			0	
APRITFGGPSDSTGSN G8P (APRITFGPPSDSTGSN)			0.001619	
APRITFGGPSDSTGSN S12K (APRITFGGPSDKTGSN)	0			

Same assay, conditions: library DMS-CoV; bait G3BP1 NFT2; prey N; peptide RNAPRITFGGPSDSTG; listed as aa = residue placed at this position; column sums to 1

Sequence	DMS PSSM value, G (position 9)	DMS PSSM value, S (position 12)	DMS PSSM value, D (position 13)	DMS PSSM value, T (position 7)	DMS PSSM value, G (position 16)	DMS PSSM value, G (position 10)
RNAPRITFGGPSDSTG G9I (RNAPRITFIGPSDSTG)	0					
RNAPRITFGGPSDSTG G9N (RNAPRITFNGPSDSTG)	0					
RNAPRITFGGPSDSTG S12P (RNAPRITFGGPPDSTG)		0				
RNAPRITFGGPSDSTG D13M (RNAPRITFGGPSMSTG)			0			
RNAPRITFGGPSDSTG T7M (RNAPRIMFGGPSDSTG)				0		
RNAPRITFGGPSDSTG G16W (RNAPRITFGGPSDSTW)					0	
RNAPRITFGGPSDSTG G9H (RNAPRITFHGPSDSTG)	0					
RNAPRITFGGPSDSTG G10F (RNAPRITFGFPSDSTG)						0
RNAPRITFGGPSDSTG G16N (RNAPRITFGGPSDSTN)					1	
